11 compounds from US10538535B2, “Antitumoral compounds” (priority 2017, dated 2020) can be followed below.

Broadly, the GI50 is the concentration at which growth is held to half of that of the control.

Holding throughout (assay): cells
For assay [1], the system named is PSN1 cells. The conditions noted are these: for CC50: read-out: LC50; for IC (TGI): read-out: TGI. From the text:
(§1) The aim of this assay is to evaluate the in vitro cytostatic (ability to delay or arrest tumor cell growth) or cytotoxic (ability to kill tumor cells) activity of the samples being tested.
(§2) A colorimetric assay, using sulforhodamine B (SRB) reaction has been adapted to provide a quantitative measurement of cell growth and viability (following the technique described by Skehan et al. J. Natl. Cancer Inst. 1990, 82, 1107-1112). Another colorimetric assay based on 3-(4,5-Dimethylthiazol-2-yl)-2,5-diphenyltetrazolium bromide (MTT) reduction to a purple formazan has been also used to assess the antiproliferative activity (following the technique described by Mosmann et al. J. Immunol. Meth. 1983, 65, 55-63).
(§3) These forms of assays employ 96-well cell culture microplates following the standards of the American National Standards Institute and the Society for Laboratory Automation and Screening (ANSI SLAS 1-2004 (R2012) Oct. 12, 2011. All the cell lines used in this study were obtained from the American Type Culture Collection (ATCC) and derive from different types of human cancer.
(§4) A549, HT29, MDA-MB-231 and PSN1 cells were maintained in Dulbecco's Modified Eagle Medium (DMEM) while PC-3 and 22Rv1 cells were maintained in Roswell Park Memorial Institute Medium (RPMI). All cell lines were supplemented with 10% Fetal Bovine Serum (FBS), 2 mM L-glutamine, 100 U/mL penicillin, and 100 […] at 37° C., 5% CO2 and 98% humidity. For the experiments, cells were harvested from subconfluent cultures using trypsinization and resuspended in fresh medium before counting and plating.
(§5) A549, HT29, MDA-MB-231 and PSN1 cells were seeded in 96 well microtiter plates, at 5000 cells per well in aliquots of 150 μL, and allowed to attach to the plate surface for 18 hours (overnight) in drug free medium. After that, one control (untreated) plate of each cell line was fixed (as described below) and used for time zero reference value. Culture plates were then treated with test compounds (50 μL aliquots of 4× stock solutions in complete culture medium plus 4% DMSO) using ten 2/5 serial dilutions (concentrations ranging from 10 to 0.003 μg/mL) and triplicate cultures (1% final concentration in DMSO). After 72 hours treatment, the antitumor effect was measured by using the SRB methodology: Briefly, cells were washed twice with PBS, fixed for 15 min in 1% glutaraldehyde solution at room temperature, rinsed twice in PBS, and stained in 0.4% SRB solution for 30 min at room temperature. Cells were then rinsed several times with 1% acetic acid solution and air-dried at room temperature.
(§6) Effects on cell growth and survival were estimated by applying the NCI algorithm (Boyd M R and Paull K D. Drug Dev. Res. 1995, 34, 91-104). The values obtained in triplicate cultures were fitted by nonlinear regression to a four-parameters logistic curve by nonlinear regression analysis.

Assay [2] has as its system HT29 cells. As to conditions: Homo sapiens, HT-29, 72 h; for CC50: read-out: LC50; for IC (TGI): read-out: TGI.
Excerpt: as §1, §2, §3, §4, §5, §6

Assay [3] deals with MDA-MB-231 cells. As to conditions: Homo sapiens, MDA-MB-231, 72 h; for CC50: read-out: LC50; for IC (TGI): read-out: TGI.
Excerpt: as §1, §2, §3, §4, §5, §6

In assay [4] the test system is A549 cells. The conditions noted are these: Homo sapiens, A549, 72 h; for CC50: read-out: LC50; for IC (TGI): read-out: TGI.
Excerpt: as §1, §2, §3, §4, §5, §6

[5] abbreviates: Homo sapiens, PSN1, 72 h, PSN1, 72 hours treatment, SRB.

Take `COc1c(C)cc2c(c1O)[C@@H]1[C@@H]3[C@@H]4SC[C@]5(N[C@H](C(=O)O)Cc6c5[nH]c5ccccc65)C(=O)OC[C@@H](c5c6c(c(C)c(OC(C)=O)c54)OCO6)N3[C@@H](O)[C@H](C2)N1C` [Compound 15-S]: the GI50 in assay [1] (Homo sapiens, PSN1, 72 h) is 238 nM; in assay [2] it was 300 nM; in assay [3] it was 163 nM; in assay [4] it was over 1250 nM. Besides, the CC50 in assay [1] (Homo sapiens, PSN1, 72 h) was 839 nM; in assay [2], 914 nM; in assay [3], 275 nM; in assay [4], over 1250 nM. The IC (TGI) in assay [1] (Homo sapiens, PSN1, 72 h) is 463 nM; in assay [2] it was 513 nM; in assay [3], 213 nM; in assay [4], over 1250 nM.
With `COc1ccc2[nH]c3c(c2c1)C[C@H](CO)N[C@]31CS[C@@H]2c3c(OC(C)=O)c(C)c4c(c3[C@H](COC1=O)N1[C@@H]2[C@H]2c3c(cc(C)c(OC)c3O)C[C@@H]([C@@H]1C#N)N2C)OCO4` [Compound 18-R], the GI50 in assay [1] (setting [5]) turned out to be 0.57 nM; in assay [1] (PSN1, 72 hours treatment, SRB), 0.571 nM. Moreover, the IC (TGI) was determined as 1.06 nM in assay [1] (Homo sapiens, PSN1, 72 h); 1.34 nM in assay [2]; 1.34 nM in assay [3]; 1.34 nM in assay [4]. In addition, the CC50 in assay [3] is 1.46 nM.
Take `COc1ccc2[nH]c3c(c2c1)C[C@@H](CO)N[C@]31CS[C@@H]2c3c(OC(C)=O)c(C)c4c(c3[C@H](COC1=O)N1[C@@H]2[C@H]2c3c(cc(C)c(OC)c3O)C[C@@H]([C@@H]1C#N)N2C)OCO4` [Compound 18-S]: the results for the GI50 in assay [1] (setting [5]) and in assay [4] were 0.959 nM and 1.7 nM, respectively. The IC (TGI) amounted to 1.34 nM in assay [1] (Homo sapiens, PSN1, 72 h); 1.34 nM in assay [2]; 1.34 nM in assay [3]; 3.03 nM in assay [4]. For the same compound, the CC50 in assay [3] stood at 1.58 nM.
With `C=CCOC(=O)NC[C@H]1Cc2c([nH]c3ccc(OC)cc23)[C@@]2(CS[C@@H]3c4c(OC(C)=O)c(C)c5c(c4[C@H](COC2=O)N2[C@@H]3[C@H]3c4c(cc(C)c(OC)c4O)C[C@@H]([C@@H]2C#N)N3C)OCO5)N1` [Compound 25-R], the CC50 is 6.73 nM in assay [1] (Homo sapiens, PSN1, 72 h); over 110 nM in assay [2]; 8.38 nM in assay [3]; 9.92 nM in assay [4]. Moreover, the IC (TGI) was determined as 2.32 nM in assay [1] (Homo sapiens, PSN1, 72 h); 2.76 nM in assay [2]; 2.54 nM in assay [3]; 2.43 nM in assay [4]. Besides, the GI50 in assay [2] came to 1.54 nM; in assay [4], 1.32 nM.
On to `C=CCOC(=O)NC[C@@H]1Cc2c([nH]c3ccc(OC)cc23)[C@@]2(CS[C@@H]3c4c(OC(C)=O)c(C)c5c(c4[C@H](COC2=O)N2[C@@H]3[C@H]3c4c(cc(C)c(OC)c4O)C[C@@H]([C@@H]2C#N)N3C)OCO5)N1` [Compound 25-S], for which the GI50 is 6.84 nM in assay [1] (setting [5]), 7.17 nM in assay [2], 5.84 nM in assay [3] and 7.17 nM in assay [4]. Besides, the CC50 in assay [1] (Homo sapiens, PSN1, 72 h) was 14.3 nM; in assay [2], over 110 nM; in assay [3], 15.4 nM; in assay [4], over 110 nM. Besides, the IC (TGI) in assay [1] (Homo sapiens, PSN1, 72 h) worked out at 9.26 nM; in assay [2], 7.72 nM; in assay [3], 9.04 nM; in assay [4], 7.61 nM.
`COc1ccc2[nH]c3c(c2c1)C[C@H](CN)N[C@]31CS[C@@H]2c3c(OC(C)=O)c(C)c4c(c3[C@H](COC1=O)N1[C@@H]2[C@H]2c3c(cc(C)c(OC)c3O)C[C@@H]([C@@H]1C#N)N2C)OCO4` [Compound 26-R]: the GI50 in assay [1] (setting [5]) worked out at 0.972 nM; in assay [2] it was 0.729 nM; in assay [3], 1.17 nM; in assay [4] it was 1.94 nM. In addition, the CC50 was 3.52 nM in assay [1] (Homo sapiens, PSN1, 72 h); over 122 nM in assay [2]; 1.46 nM in assay [3]; over 122 nM in assay [4]. In addition, the IC (TGI) in assay [1] (Homo sapiens, PSN1, 72 h) stood at 1.7 nM; in assay [2] it was 1.58 nM; in assay [3] it was 1.22 nM; in assay [4], 3.4 nM.
For the compound `COc1ccc2[nH]c3c(c2c1)C[C@@H](CN)N[C@]31CS[C@@H]2c3c(OC(C)=O)c(C)c4c(c3[C@H](COC1=O)N1[C@@H]2[C@H]2c3c(cc(C)c(OC)c3O)C[C@@H]([C@@H]1C#N)N2C)OCO4` [Compound 26-S], the GI50 in assay [1] (setting [5]) worked out at 3.04 nM; in assay [2], 2.79 nM; in assay [3], 1.34 nM; in assay [4], 11.2 nM. In addition, the CC50 in assay [1] (Homo sapiens, PSN1, 72 h) is 3.52 nM; in assay [2], over 122 nM; in assay [3], 3.89 nM; in assay [4], over 122 nM. Also, the IC (TGI) was 3.28 nM in assay [1] (Homo sapiens, PSN1, 72 h); 3.16 nM in assay [2]; 1.94 nM in assay [3]; 21.9 nM in assay [4].
For `COc1ccc2[nH]c3c(c2c1)C[C@H](CN)N[C@]31CS[C@@H]2c3c(OC(C)=O)c(C)c4c(c3[C@H](COC1=O)N1[C@@H]2[C@H]2c3c(cc(C)c(OC)c3O)C[C@@H]([C@@H]1O)N2C)OCO4` [Compound 27-R], the GI50 in assay [1] (setting [5]) was found to be 0.639 nM; in assay [2], 0.504 nM; in assay [3], 0.307 nM; in assay [4], 2.09 nM. In addition, the CC50 is 2.46 nM in assay [1] (Homo sapiens, PSN1, 72 h); over 123 nM in assay [2]; 0.86 nM in assay [3]; 10.1 nM in assay [4]. In addition, the IC (TGI) in assay [1] (Homo sapiens, PSN1, 72 h) stood at 1.17 nM; in assay [2] it was 0.553 nM; in assay [3], 0.541 nM; in assay [4] it was 3.93 nM.
Turning to `COc1ccc2[nH]c3c(c2c1)C[C@@H](CN)N[C@]31CS[C@@H]2c3c(OC(C)=O)c(C)c4c(c3[C@H](COC1=O)N1[C@@H]2[C@H]2c3c(cc(C)c(OC)c3O)C[C@@H]([C@@H]1O)N2C)OCO4` [Compound 27-S], the GI50 was 1.97 nM in assay [1] (setting [5]), 1.19 nM in assay [3] and 6.02 nM in assay [4]. The CC50 is 4.55 nM in assay [1] (Homo sapiens, PSN1, 72 h); over 123 nM in assay [2]; 1.35 nM in assay [3]; over 123 nM in assay [4]. For the same compound, the IC (TGI) in assay [1] (Homo sapiens, PSN1, 72 h) worked out at 2.83 nM; in assay [2], 1.35 nM; in assay [4], 11.2 nM.
Regarding `COc1ccc2[nH]c3c(c2c1)C[C@H](C(=O)O)N[C@]31CS[C@@H]2c3c(OC(C)=O)c(C)c4c(c3[C@H](COC1=O)N1[C@@H]2[C@H]2c3c(cc(C)c(OC)c3O)C[C@@H]([C@@H]1C#N)N2C)OCO4` [Compound 28-R], the GI50 is 21.5 nM in assay [1] (Homo sapiens, PSN1, 72 h); 31 nM in assay [2]; 19.1 nM in assay [3]; 167 nM in assay [4]. The CC50 is 66.8 nM in assay [1] (Homo sapiens, PSN1, 72 h); over 1190 nM in assay [2]; 91.9 nM in assay [3]; over 1190 nM in assay [4]. Also, the IC (TGI) in assay [1] (Homo sapiens, PSN1, 72 h) was found to be 35.8 nM; in assay [2], 33.4 nM; in assay [3], 32.2 nM; in assay [4], 358 nM.
With `COc1ccc2[nH]c3c(c2c1)C[C@@H](C(=O)O)N[C@]31CS[C@@H]2c3c(OC(C)=O)c(C)c4c(c3[C@H](COC1=O)N1[C@@H]2[C@H]2c3c(cc(C)c(OC)c3O)C[C@@H]([C@@H]1C#N)N2C)OCO4` [Compound 28-S], the GI50 in assay [1] (Homo sapiens, PSN1, 72 h) stood at 251 nM; in assay [2], 251 nM; in assay [3], 167 nM; in assay [4], 489 nM. The CC50 in assay [1] (Homo sapiens, PSN1, 72 h) was 692 nM; in assay [2] it was 633 nM; in assay [3] it was 394 nM; in assay [4], over 1190 nM. Moreover, the IC (TGI) in assay [1] (Homo sapiens, PSN1, 72 h) was 394 nM; in assay [2], 346 nM; in assay [3] it was 251 nM; in assay [4], over 1190 nM.
